# In patent publication US12187816B2, “Macrocyclic compounds and methods of use thereof” (Genentech, Inc., priority 2020, dated 2025):
# Starred links: 1 amine or outer side, 2 acyl side, 3 side chain; linkers in the order of their positions; H or OH if unused. Positions of bridges follow the written chain, without caps; N, C: chain ends. Non-standard residues stand in square brackets, D forms with d. Residues, ends and D or L forms follow the SMILES beside them. *: point of attachment. X14 = Cn1cc2c3c(c[nH]c3c1=O)CN(c1ncc(F)cc1F)c1cc(C(=O)*)c(CS(C)(=O)=O)cc1-2; X11 = CC(=O)N1c2ccc(-c3ccc(C(=O)*)cc3)cc2[C@H](Nc2ccc(Cl)cc2)C[C@@H]1C; JQ1acid = Cc1sc2c(c1C)C(c1ccc(Cl)cc1)=N[C@@H](CC(=O)*)c1nnc(C)n1-2; dPhg(4-(4-Me-thiazol-5-yl)) = Cc1ncsc1-c1ccc([C@@H](N)C(=O)O)cc1; Phg(4-(4-Me-thiazol-5-yl)) = Cc1ncsc1-c1ccc([C@H](N)C(=O)O)cc1; dDap(Me) = CN(C[C@@H](N[*:1])C(=O)[*:2])[*:3]; Bip = N[C@@H](Cc1ccc(-c2ccccc2)cc1)C(=O)O; X5 = O=C([C@@H](Cc1ccc(Br)s1)N[*:1])[*:2]; X7 = O=C([C@H](Cc1ccc(Br)s1)N[*:1])[*:2]; X4 = O=C([C@H]1CN([*:3])CCN1[*:1])[*:2]; cisHyp = O=C(O)[C@@H]1C[C@H](O)CN1; Hyp = O=C(O)[C@@H]1C[C@@H](O)CN1; d(β3hK) = NCCCC[C@@H](N)CC(=O)O; Tle = CC(C)(C)[C@H](N)C(=O)O; dDap = NC[C@@H](N)C(=O)O; PEG1 = NCCOCCC(=O)O; Ahx = NCCCCCC(=O)O; AEA = NCCOCC(=O)O
# Molecular target: T1, BRD4 (Homo sapiens, UniProt O60885)
# T1 construct: Mean 488 intensity of BRD4 quantitated in nuclear region; endogenous in cells; host or cells: EoL-1 eosinophilic leukemia cells
# Assay: BRD4 degradation assay in EOL1 cells (immunofluorescence imaging)
# Type: cell-based
# Conditions: EoL-1 eosinophilic leukemia cells, 4 hours treatment, nuclear BRD4 immunofluorescence
# Procedure: BRD4 Degradation Assay in EOL1 Cells
# EoL-1 eosinophilic leukemia cells were seeded on day 1 at a density of 45,000 cells per well in Corning PureCoat Amine Microplates, (Corning #354719) in 45 μL/well of assay media (RPMI, 10% FBS, containing L-glutamine). After cells attached to cell plate, compounds were serially diluted ⅓ in dimethylsulfoxide (DMSO) to create 20-point dilutions across a 384 well v-bottom polypropylene microplate (Greiner #781091). 2 μL of each sample from the serial dilution was transferred to 98 μL of assay media as an intermediate dilution. 5 μL of each well of the intermediate dilution was added to 45 μL of cell plate. Columns 1, 2, 23 and 24 were treated with only 0.2% final concentration of DMSO for data normalization as “neutral controls”. After compound treatment, cell plates were stored in a 37° C. incubator for 4 hours. After 4 hours cells were fixed in 3.7% w/v final concentration of paraformaldehyde by addition of 15 μL of 16% w/v paraformaldehyde (Electron Microscopy Sciences #15710-S) directly to the 50 μL media and compound in the cell plate. Cell plate was incubated at RT for 20 minutes. Well contents were aspirated and washed with 100 μL/well PBS 3 times. 50 ul/well of phosphate Buffered Saline (PBS) (pH 7.5) containing 0.5% w/v bovine serum albumen, 0.5% w/v Triton X-100 (Block/Permeabilization Buffer) was added to each well. Samples were incubated for 20 minutes. Well contents were aspirated and washed 3 times with 100 μL/well of PBS. PBS was aspirated from the well and 50 μL per well of EoL-1 Block Buffer (PBS containing 10% Normal Goat Serum (AbCam #ab7481)) was added to each well. Plates were incubated at room temperature for 30 minutes. Block buffer was decanted from the wells. Immunofluorescence staining of BRD4 was carried out by diluting mAB Anti-BRD4 [EPR5150] antibody (Abcam 128874) 1:500 into Antibody Dilution Buffer (PBS, 2% Normal Goat Serum). 25 μL per well of BRD4 antibody diluted in buffer was added and incubated overnight at 4° C.
# On day-2 samples were washed 3 times with 100 μL/well of PBS. 25 μL/well of secondary antibody solution (Goat Anti-Rabbit IgG, DyLight 488 Conjugated Highly Cross-adsorbed Thermo Fisher #35553) and Hoechst 33342 1 μg/ml diluted in Antibody Dilution Buffer) were dispensed into each well. Hoechst 33342 only was added to bottom 3 columns for data normalization as “inhibitor controls”. Samples were incubated for 2 hours at room temperature. Samples were washed 3 times with 100 μL PBS. Quantitative fluorescence imaging of BRD4 was carried out using an Opera Phenix High-Content Screening System. Fluorescent images of the samples were captured using 488 nm and 405 nm channels. Hoechst channel was used to identify nuclear region. Mean 488 intensity of BRD4 quantitated in nuclear region. Data analysis was carried out using Genedata Screener, with DMSO and no primary antibody control treated samples being used to define the 0% and 100% changes in BRD4. The dose-response log(inhibitor) vs. response used to define the inflexion point of curve (DC50) and the plateau of the maximal effect.
# The individual topological polar surface area (TPSA) and cLogP values were calculated using Chemdraw v. 15.1 (PerkinElmer). Half life of the ternary VHL/BD1 and VHL/BD2 complexes, DC50 of BRD4 in EOL1 cells, topological polar surface area of a molecule (TPSA) and c log P (lipophilicity) for compounds described herein are provided in Table 3.
row,Compound,DC50 [µM]
1,Cc1sc2c(c1C)C(c1ccc(Cl)cc1)=N[C@@H](CC(=O)NC[C@H]1NC(=O)CNC(=O)[C@H](Cc3ccc(-c4ccccc4)cc3)NC(=O)[C@@H]3C[C@@H](O)CN3C(=O)[C@H](C(C)(C)C)NC(=O)CSC[C@H](C(N)=O)NC1=O)c1nnc(C)n1-2 [Compound 19] ({CH2CO}-[Tle][Hyp][Bip]G[dDap](JQ1acid)[dC]-NH2; thioether N-6),< 20
2,Cc1sc2c(c1C)C(c1ccc(Cl)cc1)=N[C@@H](CC(=O)NC[C@H]1NC(=O)CNC(=O)[C@H](Cc3ccc(Br)s3)NC(=O)[C@@H]3C[C@@H](O)CN3C(=O)[C@H](C(C)(C)C)NC(=O)CSC[C@H](C(N)=O)NC1=O)c1nnc(C)n1-2 [Compound 20] ({CH2CO}-[Tle][Hyp][X7]G[dDap](JQ1acid)[dC]-NH2; thioether N-6),< 1
3,CC(=O)N1c2ccc(-c3ccc(C(=O)NC[C@H]4NC(=O)CNC(=O)[C@@H](c5ccc(-c6scnc6C)cc5)NC(=O)[C@@H]5C[C@@H](O)CN5C(=O)[C@H](C(C)(C)C)NC(=O)CSC[C@H](C(N)=O)NC4=O)cc3)cc2[C@H](Nc2ccc(Cl)cc2)C[C@@H]1C [Compound 21] ({CH2CO}-[Tle][Hyp][dPhg(4-(4-Me-thiazol-5-yl))]G[dDap](X11)[dC]-NH2; thioether N-6),> 20
4,Cc1ncsc1-c1ccc([C@H]2NC(=O)[C@@H]3C[C@H](O)CN3C(=O)[C@H](C(C)(C)C)NC(=O)CSC[C@H](C(N)=O)NC(=O)[C@@H](CNC(=O)C[C@@H]3N=C(c4ccc(Cl)cc4)c4c(sc(C)c4C)-n4c(C)nnc43)NC(=O)CNC2=O)cc1 [Compound 27] ({CH2CO}-[Tle][cisHyp][dPhg(4-(4-Me-thiazol-5-yl))]G[dDap](JQ1acid)[dC]-NH2; thioether N-6),> 20
5,Cc1ncsc1-c1ccc([C@H]2NC(=O)[C@@H]3C[C@@H](O)CN3C(=O)[C@H](C(C)(C)C)NC(=O)CSC[C@@H](C(N)=O)NC(=O)[C@@H](CNC(=O)C[C@@H]3N=C(c4ccc(Cl)cc4)c4c(sc(C)c4C)-n4c(C)nnc43)NC(=O)CNC2=O)cc1 [Compound 28] ({CH2CO}-[Tle][Hyp][dPhg(4-(4-Me-thiazol-5-yl))]G[dDap](JQ1acid)C-NH2; thioether N-6),> 20
6,Cc1ncsc1-c1ccc([C@H]2NC(=O)[C@@H]3C[C@@H](O)CN3C(=O)[C@H](C(C)(C)C)NC(=O)CSC[C@H](C(N)=O)NC(=O)[C@@H](CN(C)C(=O)C[C@@H]3N=C(c4ccc(Cl)cc4)c4c(sc(C)c4C)-n4c(C)nnc43)NC(=O)CNC2=O)cc1 [Compound 29] ({CH2CO}-[Tle][Hyp][dPhg(4-(4-Me-thiazol-5-yl))]G[dDap(Me)](JQ1acid)[dC]-NH2; thioether N-6),< 20
7,Cc1ncsc1-c1ccc([C@H]2NC(=O)[C@@H]3C[C@@H](O)CN3C(=O)[C@H](C(C)(C)C)NC(=O)CCOCCNC(=O)[C@@H](CNC(=O)C[C@@H]3N=C(c4ccc(Cl)cc4)c4c(sc(C)c4C)-n4c(C)nnc43)NC(=O)CNC2=O)cc1 [Compound 32] (cyclo(G[dDap](JQ1acid)[PEG1][Tle][Hyp][dPhg(4-(4-Me-thiazol-5-yl))])),> 20
8,Cc1ncsc1-c1ccc([C@@H]2NC(=O)[C@@H]3C[C@@H](O)CN3C(=O)[C@H](C(C)(C)C)NC(=O)COCCNC(=O)[C@@H](CNC(=O)C[C@@H]3N=C(c4ccc(Cl)cc4)c4c(sc(C)c4C)-n4c(C)nnc43)NC(=O)[C@H](C)NC2=O)cc1 [Compound 35] (cyclo(A[dDap](JQ1acid)[AEA][Tle][Hyp][Phg(4-(4-Me-thiazol-5-yl))])),> 20
9,Cc1ncsc1-c1ccc([C@H]2NC(=O)[C@@H]3C[C@@H](O)CN3C(=O)[C@H](C(C)(C)C)NC(=O)CNC(=O)C[C@@H](CCCCNC(=O)C[C@@H]3N=C(c4ccc(Cl)cc4)c4c(sc(C)c4C)-n4c(C)nnc43)NC(=O)CNC2=O)cc1 [Compound 36] (cyclo(G[Tle][Hyp][dPhg(4-(4-Me-thiazol-5-yl))]G[d(β3hK)](JQ1acid))),> 20
10,Cc1ncsc1-c1ccc([C@@H]2NC(=O)[C@@H]3C[C@@H](O)CN3C(=O)[C@H](C(C)(C)C)NC(=O)CNC(=O)C[C@@H](CCCCNC(=O)C[C@@H]3N=C(c4ccc(Cl)cc4)c4c(sc(C)c4C)-n4c(C)nnc43)NC(=O)CNC2=O)cc1 [Compound 37] (cyclo(G[Tle][Hyp][Phg(4-(4-Me-thiazol-5-yl))]G[d(β3hK)](JQ1acid))),> 20
11,Cc1ncsc1-c1ccc([C@H]2NC(=O)[C@@H]3C[C@@H](O)CN3C(=O)[C@H](C(C)(C)C)NC(=O)CCCCCNC(=O)[C@@H](CNC(=O)C[C@@H]3N=C(c4ccc(Cl)cc4)c4c(sc(C)c4C)-n4c(C)nnc43)NC(=O)CNC2=O)cc1 [Compound 38] (cyclo([Ahx][Tle][Hyp][dPhg(4-(4-Me-thiazol-5-yl))]G[dDap](JQ1acid))),< 1

# Results, then the molecule that gave them:
row,DC50 [µM],Compound
1,> 20,Cc1ncsc1-c1ccc([C@H]2NC(=O)[C@@H]3C[C@@H](O)CN3C(=O)[C@H](C(C)(C)C)NC(=O)CSC[C@H](C(N)=O)NC(=O)[C@@H](CNC(=O)c3cc4c(cc3CS(C)(=O)=O)-c3cn(C)c(=O)c5[nH]cc(c35)CN4c3ncc(F)cc3F)NC(=O)CNC2=O)cc1 [Compound 22] ({CH2CO}-[Tle][Hyp][dPhg(4-(4-Me-thiazol-5-yl))]G[dDap](X14)[dC]-NH2; thioether N-6)
2,< 1,Cc1sc2c(c1C)C(c1ccc(Cl)cc1)=N[C@@H](CC(=O)NC[C@H]1NC(=O)CNC(=O)[C@@H](Cc3ccc(Br)s3)NC(=O)[C@@H]3C[C@@H](O)CN3C(=O)[C@H](C(C)(C)C)NC(=O)CSC[C@H](C(N)=O)NC1=O)c1nnc(C)n1-2 [Compound 23] ({CH2CO}-[Tle][Hyp][X5]G[dDap](JQ1acid)[dC]-NH2; thioether N-6)
3,> 20,COc1ccc(C[C@@H]2NC(=O)[C@@H]3C[C@@H](O)CN3C(=O)[C@H](C(C)(C)C)NC(=O)CSC[C@H](C(N)=O)NC(=O)[C@@H](CNC(=O)C[C@@H]3N=C(c4ccc(Cl)cc4)c4c(sc(C)c4C)-n4c(C)nnc43)NC(=O)CNC2=O)cc1 [Compound 24] ({CH2CO}-[Tle][Hyp]Y(Me)G[dDap](JQ1acid)[dC]-NH2; thioether N-6)
4,< 20,Cc1ncsc1-c1ccc([C@H]2NC(=O)[C@@H]3C[C@@H](O)CN3C(=O)[C@H](C(C)(C)C)NC(=O)CSC[C@H](C(N)=O)NC(=O)[C@H]3CN(C(=O)C[C@@H]4N=C(c5ccc(Cl)cc5)c5c(sc(C)c5C)-n5c(C)nnc54)CCN3C(=O)CNC2=O)cc1 [Compound 25] ({CH2CO}-[Tle][Hyp][dPhg(4-(4-Me-thiazol-5-yl))]G[X4](JQ1acid)[dC]-NH2; thioether N-6)
5,< 1,Cc1ncsc1-c1ccc([C@H]2NC(=O)[C@@H]3C[C@@H](O)CN3C(=O)[C@H](C(C)(C)C)NC(=O)CSC[C@H](C(N)=O)NC(=O)[C@@H](CNC(=O)C[C@@H]3N=C(c4ccc(Cl)cc4)c4c(sc(C)c4C)-n4c(C)nnc43)NC(=O)[C@@H](C)NC2=O)cc1 [Compound 26] ({CH2CO}-[Tle][Hyp][dPhg(4-(4-Me-thiazol-5-yl))][dA][dDap](JQ1acid)[dC]-NH2; thioether N-6)
6,> 20,Cc1ncsc1-c1ccc([C@@H]2NC(=O)[C@@H]3C[C@@H](O)CN3C(=O)[C@H](C(C)(C)C)NC(=O)CSC[C@H](C(N)=O)NC(=O)[C@@H](CNC(=O)C[C@@H]3N=C(c4ccc(Cl)cc4)c4c(sc(C)c4C)-n4c(C)nnc43)NC(=O)[C@@H](C)NC2=O)cc1 [Compound 31] ({CH2CO}-[Tle][Hyp][Phg(4-(4-Me-thiazol-5-yl))][dA][dDap](JQ1acid)[dC]-NH2; thioether N-6)
7,< 1,Cc1ncsc1-c1ccc([C@H]2NC(=O)[C@@H]3C[C@@H](O)CN3C(=O)[C@H](C(C)(C)C)NC(=O)CNC(=O)[C@H](C)NC(=O)[C@@H](CNC(=O)C[C@@H]3N=C(c4ccc(Cl)cc4)c4c(sc(C)c4C)-n4c(C)nnc43)NC(=O)CNC2=O)cc1 [Compound 33] (cyclo(AG[Tle][Hyp][dPhg(4-(4-Me-thiazol-5-yl))]G[dDap](JQ1acid)))
